Measurements published in patent US20260224732A1, “BIOPOLYMER PROTECTED OLIGONUCLEOTIDES FOR DRUG DELIVERY” (THE ROYAL INSTITUTION FOR THE ADVANCEMENT OF LEARNING / …, priority 2023, published 2026).
Where two headings read alike, the source gives them in different places.

Key:
Epithelial cells = experiment: Cellular viability with CA and CA-R mixes; type: cell-based; conditions: after 5 days, pH 6; CA 20 mM alone or CA 20 mM plus the named CA-R (CAC2NH2 30 mM, CAC6NH2 12 mM)
Text: Magnification of 10×, scale bar=100 μm, dapi in blue and factin in red.
Cellular viability. To be applicable in biological context, the toxicity of the CA and the combined CA-R mixes were verified. Epithelial cells were cultivated in media supplemented with various CA-R mixes and acidified at pH 6. Both the cellular viability and morphology was studied over a 5 day period.

[1] = type: in vitro ADME, bovine; conditions: pH 6
Protocol: (§1) The sample then was stored at −20° C.
(§2) Results. The PAGE analyses were performed for both CA concentrations, and imaged side-by-side (FIG. 2). The strongest resulting band intensities were normalised to the t=0 data-point, plotted as a function of time (See Supplemental), and then fitted to the first-order kinetics equations (Equations 1, 2, and FIG. 3). The rate constants were calculated from these graphs (using Equation 4), and tabulated according to strand and CA concentration (Table 2).
(§3) Equation 4. The Equation 2, written as relationship between the band intensities (I at some t, and at t=0), and the rate constant, k.

[2] = Serum stability assay in L15 media with FBS, denaturing PAGE band intensity; type: in vitro ADME, bovine; conditions: pH 6
Protocol: as §1, §2
Equation 1. First-order rate law for the variation of the concentration of a substance (in this case, nucleic acid, “NA”) with time, where [NA]t is the concentration of NA at a given time t, and [NA]0 is the initial concentration.
as §3

[3] = Rheological measurements of dA/CA hydrogels; type: physicochemical; conditions: for storage modulus (G′): same wt % (dA15 1400 μM, dA30 700 μM, dA50 420 μM), Mag buffer, 25° C.; for G′ window: dA50 420 μM, dA30C8 2 mM, CA 60 mM, CAC2NH2 90 mM
Protocol: Hydrogel Assembly and Rheology: Unless otherwise stated, the preparation of gels follows this procedure. The appropriate amounts of strands are evaporated from their stocks on a speedvaccuum in a 300 μL Eppendorf. For the dA30-dsDNAn hydrogels, the concentration is half strand1 and half strand2. Once dry, 50 μL or 100 μL of a buffer containing the desired concentration of CA and/or CAC2NH2 is added to the Eppendorf. […] Both buffers give similar gels rheologically (FIG. 40). For concentrations of CA exceeding 20 mM or CAC2NH2 30 mM, the excess CA-R is dried with the strands from a water/CA 20 mM solution adjusted to pH 6. The dried DNA is mixed and sonicated to help it dissolve, forming instantly a cloudy filamentous gel. To homogenize the gels, the Eppendorf is heated to 85° C. for 5 minutes a Bio-Rad T100TM thermocycler, then cooled down to 20° C. and kept at that temperature overnight, unless otherwise noted. They are measured the next day. It is important to properly homogenize the gels, mixing them at high temp if needed, and to quickly cool them, or they may form more localized aggregates with varying rheology. Due to the high melting temperature of dA30C8 2 mM, CA 60 mM, CAC2NH2 90 mM, the gel was prepared by heating at 100° C. for 20 min (sealed to prevent water escaping), before being brought to 20° C. Clear monophasic gels are formed from this process.
Rheological measurements: Rheological properties were measured using stress-controlled rheometer (MCR 302, Anton Paar) using a 15 mm diameter cone plate at 0.2 mm (50 μL gels) or 0.5 mm (100 μL gels) gap distance. Samples were taken directly from the Eppendorf in which they were formed by prying it open with a razor blade and placed under the cone plate. The temperature was maintained at 25° C. for all measurements using a Peltier temperature control unit unless otherwise noted. Due to the small thickness of the samples, no temperature gradients are expected. To avoid drying, a solvent trap was used in all the measurements. Amplitude sweeps were first conducted to assess the linear viscoelastic range of the samples by slowly increasing the strain from 0.01% to 100%. […] Oscillatory frequency sweep tests were measured between 0.1 Hz and 100 Hz at 0.1% strain. Strain-cycle experiment was done by cycling the gel between 0.1% and 100% strains at 1 Hz. To understand the shear-thinning behavior of the samples, the viscosity was measured at increasing strain rate ranging from (0.1-100 Hz).
• A) Strand complement. Two 50 μL dA30C4 700 μM hydrogel in Mag buffer with CA 20 mM samples were prepared, as well as a 10 μL sample of dG4T30 3 mM (1.5 eq.) in the same buffer and CA concentration. A sample of dA30C4 hydrogel was measured independently. The dG4T30 sample was added to the second dA30C4 sample and vortexed in its Eppendorf for 2 minutes before being measured. • B) Melamine. A 50 μL hydrogel composed of dA30-dsDNA13 700 μM and CA 20 mM in Mag buffer was measured in the rheometer. The plate of the rheometer was lifted and 50 μL of solution of 20 mM melamine in Mag buffer at pH6 was added to it. Instant white precipitate formed and was encouraged by gently mixing with a spatula for 30s before the resulting liquid with solid precipitate was measured rheologically. • C) pH. A volume of 180 μL of dA30C4v2 700 μM CA 20 mM hydrogel in Mag buffer was prepared. The initial pH was measured at 5.71 with a surface pH meter (Mettler Toledo). An approximate volume of 50 μL was separated and measured rheologically. To the remaining 130 μL, 2.70 μL of NaOH 5.04M was added and stirred through vortexing. The resulting pH of the liquid was measured at 7.91. 50 μL of it were measured rheologically. To the remaining 80 μL, 1.5 μL of HCl 5.04M was added by aliquot and mixed through vortexing, forming a gel with a pH of 5.66 after 2 minutes. To note that in general, it is important to mix vigorously with the addition of the acid, or localized gels will form rather than a homogeneous one. […]

| Molecule | k 0 mM [CA] [1] | k 20 mM [CA] [1] | k 0 mM [CA] [2] | k 20 mM [CA] [2] | further results |
| --- | --- | --- | --- | --- | --- |
| NCCn1c(=O)[nH]c(=O)[nH]c1=O [CAC2NH2] |  |  |  |  | viability (Epithelial cells): 82±5% |
| NCCCCCCn1c(=O)[nH]c(=O)[nH]c1=O [CAC6NH2] |  |  |  |  | viability (Epithelial cells): 43±2% |
| Control random: DNA GATGAGGTACCCAGAAGCCGAACTGGGCCAGACAACCCGGCGCTAAC, SEQ ID NO 11, no polyA (DNA, backbone not given here) [reference compound] | (3.86 ± 0.2) × 10^−2 h^−1 | (3.48 ± 0.8) × 10^−2 h^−1 |  |  |  |
| R7rA15: RNA strand AAAAAAAAAAAAAAAGTCATCG, SEQ ID NO 3 in Table 1; Table 5 swaps the name with rA15R7 (AAAAAAAAAAAAAAAGUCAUCG; chemistry not fully specified) [Strand R7rA15] | (2.80 ± 0.7) × 10^−2 h^−1 | (7.47 ± 0.4) × 10^−3 h^−1 | (3.73) × 10^−2 h^−1 | (2.59) × 10^−3 h^−1 |  |
| dA15: DNA strand of 15 adenines, SEQ ID NO 5 (DNA AAAAAAAAAAAAAAA; DNA, backbone not given here) |  |  |  |  | storage modulus (G′) ([3]; 1 Hz, CA 20 mM): 1.3±0.8×10^1 Pa; storage modulus ([3]; pure dA15 hydrogel with CA): ~10^1 Pa; storage modulus ([3]; pure dA15 hydrogel with CAC2NH2 instead of CA, 0.7 wt % (including CAC2NH2)): ~10^3 Pa |
| dA30C4-v2′: DNA strand, 30 adenines then CCCCGTCGCTCTCTCAAGTAGAAT, SEQ ID NO 10 (DNA AAAAAAAAAAAAAAAAAAAAAAAAAAAAAACCCCGTCGCTCTCTCAAGTAGAAT; DNA, backbone not given here) | (1.33 ± 0.1) × 10^−2 h^−1 | (3.46 ± 0.5) × 10^−3 h^−1 |  |  |  |
| dA30C4: DNA strand, 30 adenines then CCCC, SEQ ID NO 9 (DNA AAAAAAAAAAAAAAAAAAAAAAAAAAAAAACCCC; DNA, backbone not given here) |  |  | (5.83) × 10^−3 h^−1 | (−2.08) × 10^−3 * h^−1 | G′ and G″ after addition of the complementary strand dG4T30 ([3]; dA30C4 700 μM, CA 20 mM, dG4T30 1.5 eq.): large loss of G′ and G″ |
| dA30C8: DNA strand, 30 adenines then CCCCCCCC, SEQ ID NO 8 (DNA AAAAAAAAAAAAAAAAAAAAAAAAAAAAAACCCCCCCC; DNA, backbone not given here) | (2.29 ± 0.5) × 10^−2 h^−1 | (4.87 ± 0.7) × 10^−3 h^−1 |  |  | moduli at 37° C. ([3]; 1.7 wt % gel, room temperature to 37° C.): virtually unchanged; G′ ([3]; 1.7 wt %, mixture of CA and CAC2NH2): ~10^4 Pa; G′ ([3]; 4.7 wt % (CA-R included), 1 Hz): 8±1×10^4 Pa; G′ ([3]; 4.7 wt % (CA-R included), 10 Hz): 1±0.1×10^5 Pa; storage modulus at 85° C. ([3]; 4.7 wt % gel, 85° C.): above 10^4 Pa; G′ window ([3]; CA 20 mM): ~10^5 Pa; gel state at 100° C. ([3]; qualitatively observed): staying a gel |
| dA50: DNA strand of 50 adenines, SEQ ID NO 28 (DNA AAAAAAAAAAAAAAAAAAAAAAAAAAAAAAAAAAAAAAAAAAAAAAAAAA; DNA, backbone not given here) |  |  |  |  | storage modulus (G′) ([3]; 1 Hz, CA 20 mM): 4±2×10^1 Pa; G′ window ([3]; CA 20 mM): ~10^1 Pa |
| rA15: RNA strand AAAAAAAAAAAAAAA, SEQ ID NO 1 (RNA, backbone not given here) | (2.43 ± 0.3) × 10^−2 h^−1 | (2.42 ± 0.2) × 10^−3 h^−1 | (6.70) × 10^−2 h^−1 | (1.07) × 10^−2 h^−1 |  |
| rA15R7: RNA strand GCTACTGAAAAAAAAAAAAAAA, SEQ ID NO 2 in Table 1; Table 5 swaps the name with R7rA15 (GCUACUGAAAAAAAAAAAAAAA; chemistry not fully specified) | (1.25 ± 0.2) × 10^−1 h^−1 | (2.25 ± 0.2) × 10^−3 h^−1 | (4.67) × 10^−2 h^−1 | (4.16) × 10^−3 h^−1 |  |
| dA30C4v2: hydrogel strands: 30 adenine followed by 20 complementary base pairs as overhang; strand1 and strand2, SEQ ID NO 33, 34 (nucleic acid, DNA, backbone not given here; hydrogel-forming strands with complementary overhangs) chain 1: AAAAAAAAAAAAAAAAAAAAAAAAAAAAAACCCCATTCTACTTGAGAGAGCGAC chain 2: AAAAAAAAAAAAAAAAAAAAAAAAAAAAAACCCCGTCGCTCTCTCAAGTAGAAT |  |  |  |  | storage modulus G′ (1 Hz) ([3]; 700 μM strands (1.4 wt % for dA30C4v2), CA 20 mM): 4±0.8×10^3 Pa; G′ ([3]; 4 wt % (CA included)): 3×10^4 Pa |
| dA30-dsDNA13: half strand1 and half strand2, SEQ ID NO 31 and 32, double-stranded DNA crosslink (nucleic acid, DNA, backbone not given here; crosslinked double-stranded DNA) chain 1: AAAAAAAAAAAAAAAAAAAAAAAAAAAAAACTAGAAGTGTCCAGTTA chain 2: AAAAAAAAAAAAAAAAAAAAAAAAAAAAAATTACTAACTGGACACTT |  |  |  |  | yield point of the gel (G″ overtakes G′) ([3]; 700 μM): Around 1 % shear strain; G′ and G″ after adding stoichiometric amount of melamine ([3]; 700 μM, CA 20 mM, melamine 20 mM): greatly decreases G′ and G″; self-healing, return to initial modulus ([3]; cycling low shear (0.1%) and high shear (100%)): under 1 min |
